Assay results as given in patent US5952327A, “Phosphonic acid-substituted benzazepinone-n-acetic acid derivatives process for their preparation and pharmaceutical compositions comprising them” (Solvay Pharmaceuticals GmbH, priority 1997, dated 1999).

Tests used:
[1] = system: endothelin-converting enzyme (ECE); test: In-vivo ECE inhibitory action: blood pressure increase induced by BIG-ET in rats; set-up: species or system male CD rats
Experimental: ET is an endogenous strongly vasoconstrictory active substance. An increase in the ET level leads to a blood pressure increase. On infusion of BIG-ET, a blood pressure increase takes place to the extent at which ET is formed from this by ECE-catalysed cleavage. As a measure of the ECE-inhibitory action of the substances, their inhibitory action on the blood pressure increase induced by infusion of BIG-ET was determined.
The experiments were carried out using male CD® rats from Charles River Wiga having a body weight of 220-280 g. Under ketamine/xylazine anaesthesia, a catheter for substance administration was tied into the left jugular vein and a second for the measurement of the blood pressure was tied into the left carotid artery of the animals. After a recovery time of 30 minutes, the test substance was administered intravenously (i.v.) or intraduodenally (i.d.) to the animals as a solution. After administration of the test substances, the animals each received BIG-ET in a dose of 0.5 nmole/kg intravenously. The period between administration of the test substance and the administration of BIG-ET was 5 minutes in each case on i.v. administration, 15 minutes in each case on i.d. administration of the test substances of Example Nos. 18 and 22, and 30 minutes in each case on i.d. administration of the test substances of Example Nos. 8 and 20. During the next 30 minutes, the systolic and the diastolic blood pressure were recorded every 5 minutes. With untreated animals, the infusion of 0.5 nmol/kg of big endothelin leads reproducibly to a drastic blood pressure increase, which lasts about 30 minutes. The maximum of the blood pressure increase is reached after about 5 minutes.
In the following Table 2, the maximum increase in the blood pressure after BIG-ET administration is indicated for control animals treated with placebo solution and for animals which have been pretreated with the test substance solutions in different doses.

[2] = Determination of the minimum toxic dose (i.v.) in rats; type: in vivo; conditions: 215 mg/kg i.v., observed for one week
Experimental: I.v. maximum doses of 215 mg/kg of the test substances (dissolved in 0.1 N aqueous NaOH solution, whose pH had been adjusted to 7.1) were administered to groups of 10 rats each of 250 g body weight (age 5 to 6 weeks). From the time of administration, the animals were carefully observed for 5 hours for clinically recognizable signs of toxicity. Moreover, they were observed twice daily until one week had passed. After expiry of this week, each individual animal was completely dissected and all organs were examined macroscopically. If death or severe toxic symptoms was observed, increasingly smaller doses were administered to further rats until toxic symptoms no longer occured. The lowest dose which caused death or severe toxic symptoms was determined to be the minimum toxic dose.

[3] = system: diuresis/natriuresis in volume-loaded rats; test: In-vivo effect on diuresis/natriuresis in volume-loaded rats; set-up: species or system male Wistar rats; conditions: 60 min collection
Experimental: The in-vivo activity was investigated in volume-loaded rats. In this experiment, a high cardiac filling pressure was produced by an infusion of isotonic sodium chloride solution, as a consequence of which ANP release and, as a result, diuresis/natriuresis occurred.
The experiments were carried out using male Wistar rats having a body weight of 200-400 g. Under neuroleptic analgesia (fentanyl; Hypnorm®, manufacturer Janssen), a catheter was tied into the right femoral vein for the background infusion and the volume loading with isotonic sodium chloride solution. After opening the abdomen, a second catheter was inserted in the bladder and the urethra was tied off so that a measurement of urinary volume, natriuresis and kaliuresis was possible.
The abdomen was closed again, and the animals received a continuous infusion of sodium chloride solution (0.5 ml/100 g of body weight) over the total experimental period of 2 hours. After an equilibration period of 30 minutes, urine samples were collected three times in each case over a period of 10 minutes in a preliminary phase before test substance administration. These preliminary values ("predrug" values) were determined in order to check that a continuous urine flow was taking place in the test animals.
The solutions comprising the test substances were then administered intravenously (bolus injection in the femoral vein) or orally (by means of stomach tube) to groups of 10 rats in each case. For both administration forms, one control animal group in each case received only placebo solutions which contained no active compound. 5 minutes after i.v. administration or 120 minutes after oral administration of the substances, the rats were loaded i.v. with an increased volume of sodium chloride solution (2 ml/100 g of body weight in 2 minutes) and the urine was collected over a period of 60 minutes. The amounts of urine produced in this period were determined, and the sodium and potassium contents contained therein were measured. From the amounts of urine produced, the increase in excretion which took place under volume loading is read off compared with the preliminary values.
In the following Table 1, the increases in urine excretion which have taken place under volume loading after administration of the test substances are indicated in % relative to the urine excretion which has taken place under volume loading after administration of placebo. Furthermore, the amounts of sodium and potassium excreted under volume loading after test substance administration are also indicated in % of the amounts of sodium and potassium excreted under volume loading after administration of placebo. The example numbers in Tables 1 and 2 relate to the subsequent synthesis examples.

[4] = target: neutral endopeptidase (NEP) (E.C. 3.4.24.11) (Homo sapiens, UniProt P08473); test: In-vitro NEP inhibitory action (hydrolytic degradation of Met-encephalin); type: biochemical; conditions: purified NEP, Met-encephalin substrate, pH 7.4, 37° C.; read-out: IC50 value for NEP inhibition
Sequence of neutral endopeptidase (NEP) (E.C. 3.4.24.11) (P08473 whole entry, species assumed): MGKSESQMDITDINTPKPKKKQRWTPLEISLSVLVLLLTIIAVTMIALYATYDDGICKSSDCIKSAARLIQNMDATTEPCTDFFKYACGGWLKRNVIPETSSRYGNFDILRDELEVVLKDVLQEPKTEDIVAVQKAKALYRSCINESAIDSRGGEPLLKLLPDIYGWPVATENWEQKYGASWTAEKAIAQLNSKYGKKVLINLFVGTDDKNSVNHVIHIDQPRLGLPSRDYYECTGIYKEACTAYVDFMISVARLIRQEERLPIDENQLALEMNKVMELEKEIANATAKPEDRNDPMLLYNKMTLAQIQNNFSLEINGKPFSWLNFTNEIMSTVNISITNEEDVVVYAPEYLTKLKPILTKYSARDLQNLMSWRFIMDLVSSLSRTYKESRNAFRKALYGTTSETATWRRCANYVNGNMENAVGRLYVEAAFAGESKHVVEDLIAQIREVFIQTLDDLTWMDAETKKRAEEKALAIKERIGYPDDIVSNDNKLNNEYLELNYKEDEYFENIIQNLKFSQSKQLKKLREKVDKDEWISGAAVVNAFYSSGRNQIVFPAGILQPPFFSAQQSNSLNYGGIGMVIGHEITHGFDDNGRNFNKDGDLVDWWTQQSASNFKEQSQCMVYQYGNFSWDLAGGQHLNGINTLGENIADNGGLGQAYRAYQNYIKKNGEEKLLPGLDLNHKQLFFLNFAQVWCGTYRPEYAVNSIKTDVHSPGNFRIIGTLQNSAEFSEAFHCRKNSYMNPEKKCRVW
Experimental: In this test, the measure of the inhibitory activity of the substances determined was their IC50 value. The IC50 value of a test substance having enzyme-inhibitory activity is that concentration of the test substance at which 50% of the enzymatic activity of the NEP is blocked.
To carry out the test, respective 100 μl samples of various incubation solutions comprising 10 ng of purified NEP (E.C. 3.4.24.11) and different amounts of test substance and 20 μl substrate (Met-encephalin) and 50 mM tris buffer (tris(hydroxymethyl)aminomethane/HCl, pH 7.4) were prepared. […]
The incubation solutions were incubated for 30 minutes at 37° C. in a shaking water bath. […] The stopped incubation solution was then centrifuged at 12,000×g for 3 minutes, and the concentrations of unreacted substrate and of hydrolysis products formed by the enzymatic reaction were determined in the supernatant. For this purpose, samples of the respective supernatants were separated by high-pressure liquid chromatography (HPLC) on hydrophobicized silica gel, and the products of the enzymatic reaction and unreacted substrate were determined photometrically at a wavelength of 205 nm. […]
The IC50 value of the test substances was calculated in a known manner from the concentrations of hydrolysis products and unreacted substrate measured in the different samples.

[5] = 30 μmol/kg i.d., 30 min before BIG-ET 0.5 nmole/kg i.v., control 40
[6] = 30 μmol/kg i.d., 30 min before BIG-ET 0.5 nmole/kg i.v., control 61
[7] = 30 μmol/kg i.d., 15 min before BIG-ET 0.5 nmole/kg i.v., control 40
[8] = 30 μmol/kg i.d., 15 min before BIG-ET 0.5 nmole/kg i.v., control 61

SMILES | Blood pressure increase after BIG-ET administration, diastolic pressure (maximum) [1, 5] [mm Hg] | Blood pressure increase after BIG-ET administration, systolic pressure (maximum) [1, 6] [mm Hg] | Increase in urine excretion under volume loading after administration of test substance in % relative to the urine excretion under volume loading after administration of placebo ([3]; 30.0 μmole/kg p.o.) [%] | K excretion under volume loading: amount excreted after administration of test substance in % of the amount excreted after administration of placebo ([3]; 30.0 μmole/kg p.o.) [%] | Na excretion under volume loading: amount excreted after administration of test substance in % of the amount excreted after administration of placebo ([3]; 30.0 μmole/kg p.o.) [%] | Blood pressure increase after BIG-ET administration, diastolic pressure (maximum) [1, 7] [mm Hg] | Blood pressure increase after BIG-ET administration, systolic pressure (maximum) [1, 8] [mm Hg] | other results
O=C(O)CN1C(=O)[C@@H](NC(=O)C2(CP(=O)(O)O)CCCC2)CCc2ccccc21 [Example 2, (3S)-3-(1-Phosphonomethylcyclopentane-1-carbonylamino)-2,3,4,5-tetrahydro-2-oxo-1H-1-benzazepine-1-acetic acid] |  |  |  |  |  |  |  | Blood pressure increase after BIG-ET administration, diastolic pressure (maximum) ([1]; 1 mg/kg i.v., 5 min before BIG-ET 0.5 nmole/kg i.v., control 32): 23 mm Hg; Blood pressure increase after BIG-ET administration, systolic pressure (maximum) ([1]; 1 mg/kg i.v., 5 min before BIG-ET 0.5 nmole/kg i.v., control 65): 38 mm Hg; Blood pressure increase after BIG-ET administration, diastolic pressure (maximum) ([1]; 3 mg/kg i.v., 5 min before BIG-ET 0.5 nmole/kg i.v., control 32): 14 mm Hg; Blood pressure increase after BIG-ET administration, systolic pressure (maximum) ([1]; 3 mg/kg i.v., 5 min before BIG-ET 0.5 nmole/kg i.v., control 65): 27 mm Hg; Blood pressure increase after BIG-ET administration, diastolic pressure (maximum) ([1]; 10 mg/kg i.v., 5 min before BIG-ET 0.5 nmole/kg i.v., control 32): 0.4 mm Hg; Blood pressure increase after BIG-ET administration, systolic pressure (maximum) ([1]; 10 mg/kg i.v., 5 min before BIG-ET 0.5 nmole/kg i.v., control 65): -1 mm Hg; signs of toxicity at maximum dose [2]: no significant signs of toxicity; Increase in urine excretion under volume loading after administration of test substance in % relative to the urine excretion under volume loading after administration of placebo ([3]; 6.0 μmole/kg i.v.): 117%; K excretion under volume loading: amount excreted after administration of test substance in % of the amount excreted after administration of placebo ([3]; 6.0 μmole/kg i.v.): 116%; Na excretion under volume loading: amount excreted after administration of test substance in % of the amount excreted after administration of placebo ([3]; 6.0 μmole/kg i.v.): 147%; Increase in urine excretion under volume loading after administration of test substance in % relative to the urine excretion under volume loading after administration of placebo ([3]; 20.0 μmole/kg i.v.): 149%; K excretion under volume loading: amount excreted after administration of test substance in % of the amount excreted after administration of placebo ([3]; 20.0 μmole/kg i.v.): 182%; Na excretion under volume loading: amount excreted after administration of test substance in % of the amount excreted after administration of placebo ([3]; 20.0 μmole/kg i.v.): 246%; IC50 [4]: 1.7 nM
CCOP(=O)(CC1(C(=O)N[C@H]2CCc3ccccc3N(CC(=O)OC(C)(C)C)C2=O)CCCC1)OCc1ccccc1 (stereo partly drawn) [Example 8, tert-Butyl (3S)-3-(1-benzylethylphosphonomethylcyclopentane-1-carbonylamino)-2,3,4,5-tetrahydro-2-oxo-1H-1-benzazepine-1-acetate] | 26 | 25 |  |  |  |  |  | 
CCOC(=O)CN1C(=O)[C@@H](NC(=O)C2(CP(=O)(O)O)CCCC2)CCc2ccccc21 [Example 13, Ethyl (3S)-3-(1-phosphonomethylcyclopentane-1-carbonylamino)-2,3,4,5-tetrahydro-2-oxo-1H-1-benzazepine-1-acetate] |  |  | 168 | 87 | 128 |  |  | 
CCOP(=O)(CC1(C(=O)N[C@H]2CCc3ccccc3N(CC(=O)OC(C)(C)C)C2=O)CCCC1)OCOC(=O)C(C)(C)C (stereo partly drawn) [Example 18, tert-Butyl (3S)-3-[1-(pivaloyloxymethylethylphosphono-methyl)cyclopentane-1-carbonylamino]-2,3,4,5-tetrahydro-2-oxo-1H-benzazepine-1-acetate] |  |  |  |  |  | 17 | 19 | 
CC(C)(C)OC(=O)CN1C(=O)[C@@H](NC(=O)C2(CP(=O)(O)O)CCCC2)CCc2ccccc21 [Example 20, tert-Butyl (3S)-3-[1-phosphonomethylcyclopentane-1-carbonylamino)-2,3,4,5-tetrahydro-2-oxo-1H-1-benzazepine-1-acetate] | 37 | 50 |  |  |  |  |  | 
CCOP(=O)(O)CC1(C(=O)NC2CCc3ccccc3N(CC(=O)O)C2=O)CCCC1 (stereo not shown) [Example 22] |  |  | 127 | 106 | 161 | 21 | 36 | 
